Measured values published in patent US20150274639A1, “METHODS OF USE FOR COMPOSITIONS COMPRISING A BIOCIDAL POLYAMINE” (Curza Global, LLC, priority 2013, published 2015).
Where “and” joins values, the source holds several entries; their conditions need not be identical. Identical values can stand only once.

Tests used:
[1] = tested on: MRSA biofilm; assay: EBEC on PEEK membranes, 100% eradication (Example 2); assay type: cell-based, methicillin-resistant Staphylococcus aureus; settings: PEEK membrane, eradicate all detectable amounts (100%), listed as PBC-51
Protocol: (§1) The fourth test that was performed was the effective biofilm eradication concentration (EBEC). To determine the EBEC, biofilms of MRSA and P. aeruginosa ATCC 27853 were grown on the surface of PEEK membranes using a previously established protocol. Briefly, 500 mL of brain heart infusion (BHI) broth were inoculated with 10^5 cells/mL of MRSA or P. aeruginosa. BHI broth was placed into a membrane biofilm reactor and placed on a hot plate set at 34° C. for 24 hours with a stir bar rotating at 130 rpm. Following the initial 24-hour growth period, a 10% BHI broth solution was flowed through the reactor at a rate of 6.944 mL/min for another 24 hours. After 48 hours of growth, each PEEK membrane had biofilm growth on it. In this experiment, there were ˜2×10^11 cells of MRSA per PEEK membrane and −2×10^10 cells of P. aeruginosa per PEEK membrane. The EBEC was defined as the concentration of the compound that was required to eradicate all detectable amounts (100%) of bacteria within the biofilms.

[2] = tested on: P. aeruginosa ATCC 27853 biofilm; assay: as above; assay type: cell-based, Pseudomonas aeruginosa; settings: PEEK membrane, eradicate all detectable amounts (100%), listed as PBC-51
Protocol: as §1

[3] = tested on: P. aeruginosa ATCC 27853; assay: MIC, CLSI M26-A microdilution (Example 2); assay type: cell-based; settings: Pseudomonas aeruginosa, ATCC27853, 10^5 to 10^2 cells/mL in 24 hours
Protocol: (§2) The second test determined the minimum inhibitory concentration (MIC) of the compound against MRSA and P. aeruginosa ATCC 27853. […] This definition was consistent with the Clinical and Laboratory Standards Institute (CLSI). More specifically, the microdilution method as outlined in the M26-A CLSI guideline was used. All tests were performed with cation adjusted Mueller Hinton broth.

[4] = tested on: MRSA biofilm; assay: MBEC assay (Calgary Biofilm Device), 100% eradication (Example 2); assay type: cell-based, methicillin-resistant Staphylococcus aureus; settings: eradicate 100% of detectable biofilm, listed as PBC-51
Protocol: (§3) In addition to determining the MIC, the minimum biofilm eradication concentration (MBEC) of PBC-51 was also determined. The MBEC was determined using the MBEC assay, formerly known as the Calgary Biofilm Device, developed by Innovotech. In this instance, the MBEC was defined as the amount of antimicrobial required to eradicate 100% of detectable biofilm after being grown in the MBEC device. To grow the biofilms within this device, 150 μL of solution containing a concentration of 10^5 cells/mL were inoculated into each well of a 96-well plate. A lid containing 96 pegs was placed onto the plate and incubated for 24 hours at 37° C. while being shaken at 110 rpm. Biofilms developed on the surface of the polystyrene pegs within the 96-well plate. After 24 hours, each peg contained between 10^5 and 10^6 cells in well-established biofilms. The lid with pegs was transferred to a 96-well plate that contained 200 μL of varying concentrations of the compound and was incubated at 37° C. for an additional 24 hours. The plate was then sonicated, and the biofilms quantified using a 10-fold dilution series to determine the MBEC.

[5] = tested on: Columbia blood agar; assay: Hemolytic nature on Columbia blood agar; assay type: cell-based; settings: 100 μg/mL, 50 μg/mL and 25 μg/mL; 20 μL on Columbia blood agar, 37° C., 24 hours
Protocol: In addition to determining the antimicrobial efficacy of the compound, an initial test was performed to determine its hemolytic nature. To do so, the compound was suspended in concentrations of 100 μg/mL, 50 μg/mL and 25 μg/mL. Twenty μL of each concentration was placed onto the surface of Columbia blood agar and incubated at 37° C. for 24 hours.

[6] = tested on: MRSA; assay: MIC, CLSI M26-A microdilution (Example 2); assay type: cell-based, methicillin-resistant Staphylococcus aureus; settings: Staphylococcus aureus, 10^5 to 10^2 cells/mL in 24 hours
Protocol: as §2

[7] = tested on: P. aeruginosa ATCC 27853 biofilm; assay: MBEC assay (Calgary Biofilm Device), 100% eradication (Example 2); assay type: cell-based, Pseudomonas aeruginosa; settings: eradicate 100% of detectable biofilm, listed as PBC-51
Protocol: as §3

[8] = tested on: MRSA; assay: Zones of inhibition on cation adjusted Mueller Hinton agar (Example 2); assay type: cell-based, methicillin-resistant Staphylococcus aureus; settings: 50 μL drop on MRSA lawn, 37° C., 24 hours
Protocol: (§4) A compound was screened for its ability to create zones of inhibition on cation adjusted Mueller Hinton agar. It is believed that the compound of Example 2 may be represented by the structure disclosed in FIG. 4H. To perform this test, lawns of methicillin-resistant Staphylococcus aureus (MRSA) or Pseudomonas aeruginosa ATCC 27853 were made on cation adjusted Mueller Hinton agar using standard microbiological techniques. Immediately after plating bacteria on agar, a 50 μL drop of the compound was placed onto the agar surface. The compound was tested in duplicate at 100 μg/mL, 50 μg/mL, 25 μg/mL and 10 μg/mL. All plates were incubated at 37° C. for 24 hours.

[9] = tested on: Pseudomonas aeruginosa ATCC 27853; assay: as above; assay type: cell-based; settings: 50 μL drop on P. aeruginosa lawn, 37° C., 24 hours
Protocol: as §4

[10] = tested on: biofilms of MRSA and P. aeruginosa; assay: Visual observation of biofilm dispersal from PEEK membranes; assay type: cell-based; settings: 300, 200 and 100 μg/mL
Protocol: Initial tests based on visual observation were performed to determine the ability of the compound to disperse biofilms. This was done by observing the biofilms of MRSA and P. aeruginosa that had grown on the surface of PEEK membranes after they had been placed in three separate concentrations of the compound (300 μg/mL, 200 μg/mL and 100 μg/mL). Biofilms were observed every 30 minutes to see if they separated from the PEEK membrane.

In the case of CC(C)(C)OC(=O)NCCCNCCCNCc1cc(CNCCCNCCCN)cc(CNCCCNCCCN)c1 [CZ-51], the EBEC [1] is reported as ~250 μg/mL and ~470.88 μM, the EBEC [2] is reported as < 100 μg/mL and < 188.33 μM and the MIC [3] is reported as ~6 µg/mL and ~11.3 µM. For the same compound, the MBEC [4] was < 25 μg/mL and < 47 μM, the hemolytic activity [5] was “none of these concentrations displayed hemolytic activity” and the MIC [6] was ~1 µg/mL and ~1.88 µM. The MBEC [7] was ~35 μg/mL and ~65.92 μM, the “concentration at which total clearing was seen” value [8] was 10 µg/mL and the “concentration at which partial clearing was seen” value [9] was 25 µg/mL. For the same compound, the “concentration at which total clearing was seen” value [9] was 50 µg/mL, the “biofilm separated from the PEEK membrane by 24 hours” value [10] was “all detectable amounts of biofilm had separated” and the “biofilms separated from the PEEK membrane by 4 hours” value [10] was “approximately half”. The “time at which biofilms began to separate from the PEEK membranes” value [10] was at most 2 h.
